Assay results taken from publication PMC4887716 (Iranian Journal of Basic Medical Sciences, 2016).
Read-outs that look alike come from different tables or passages of the source.

How the values were obtained:
P-gp [1] = test: In situ single pass intestinal perfusion; settings: for increase of digoxin Peff: in situ SPIP
P-gp [2] = settings: MDR-MDCK cells; cited from earlier work
[3] = cited from earlier work
P-gp [4] = settings: cited from earlier work
Caco-2 cells = test: In vitro cytotoxicity study; assay type: cell-based, human; settings: clemastine 0.01-10 µM, 24 hr incubation
[5] = cited from earlier work; remark: listed apart in the source

Row | Structure (SMILES) | Peff of digoxin alone (control) (P-gp [1]; 20 µM digoxin, rat jejunum SPIP) | P-gp substrate status from efflux in presence of cyclosporine-A (P-gp [2]) | increase of digoxin Peff (P-gp [1]; 0.5 µM clemastine) | increase of digoxin Peff (P-gp [1]; 10 µM clemastine) [%] | solubility in water [3] | P-gp substrate classification (P-gp [4]) | cytotoxic effect on Caco-2 cells (cell viability, MTT) (Caco-2 cells) | elimination half-life [5] | therapeutic level in blood plasma [5] [ng/mL] | therapeutic level in blood plasma ([5]; converted from ng/ml) [nM]
1 | C[C@H]1O[C@@H](O[C@H]2[C@@H](O)C[C@H](O[C@H]3[C@@H](O)C[C@H](O[C@H]4CC[C@@]5(C)[C@H](CC[C@@H]6[C@@H]5C[C@@H](O)[C@]5(C)[C@@H](C7=CC(=O)OC7)CC[C@]65O)C4)O[C@@H]3C)O[C@@H]2C)C[C@H](O)[C@@H]1O [digoxin] | 3.4±0.8 ×10^-5cm/s |  |  |  |  |  |  |  |  | 
2 | CN1CCC[C@@H]1CCO[C@](C)(c1ccccc1)c1ccc(Cl)cc1 [clemastine] |  | clemastine is a P-gp substrate | about 65% | ~165 | very slightly soluble in water | non-P-gp-substrate | no cytotoxic effect | approximately 21 hr | 0.7 to 2 | 1.5 to 4.4
